Assay [1] has as its system HEK293. Nature of the assay: cells. In kind it is functional, cell-based. Conditions: Homo sapiens.
The target in assay [2] is T1, Short transient receptor potential channel 4 (Mus musculus, UniProt Q9QUQ5).
T1 sequence (Q9QUQ5 whole entry): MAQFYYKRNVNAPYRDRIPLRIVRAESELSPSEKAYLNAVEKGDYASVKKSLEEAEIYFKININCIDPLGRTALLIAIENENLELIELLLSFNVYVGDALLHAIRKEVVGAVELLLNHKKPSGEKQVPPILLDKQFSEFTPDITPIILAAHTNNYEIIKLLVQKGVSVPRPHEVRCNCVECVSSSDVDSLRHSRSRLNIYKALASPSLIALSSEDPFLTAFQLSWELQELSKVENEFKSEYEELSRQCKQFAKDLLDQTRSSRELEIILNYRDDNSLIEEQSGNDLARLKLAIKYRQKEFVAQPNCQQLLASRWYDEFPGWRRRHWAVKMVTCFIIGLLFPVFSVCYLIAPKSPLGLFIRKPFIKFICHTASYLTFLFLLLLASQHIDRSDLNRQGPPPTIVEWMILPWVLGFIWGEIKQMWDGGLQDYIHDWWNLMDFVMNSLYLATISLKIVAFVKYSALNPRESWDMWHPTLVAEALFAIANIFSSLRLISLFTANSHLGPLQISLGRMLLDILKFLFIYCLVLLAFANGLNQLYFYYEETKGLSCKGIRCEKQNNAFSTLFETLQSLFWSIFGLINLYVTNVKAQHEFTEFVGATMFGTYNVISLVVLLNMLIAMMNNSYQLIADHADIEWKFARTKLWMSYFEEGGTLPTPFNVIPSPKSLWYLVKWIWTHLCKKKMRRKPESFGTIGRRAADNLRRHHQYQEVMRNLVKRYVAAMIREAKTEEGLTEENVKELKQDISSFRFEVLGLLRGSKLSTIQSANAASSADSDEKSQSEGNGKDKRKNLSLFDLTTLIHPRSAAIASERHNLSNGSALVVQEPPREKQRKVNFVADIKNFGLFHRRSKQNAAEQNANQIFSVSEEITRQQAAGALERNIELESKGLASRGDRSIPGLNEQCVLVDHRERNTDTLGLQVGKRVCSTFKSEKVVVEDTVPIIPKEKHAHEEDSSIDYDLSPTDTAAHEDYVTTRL
Nature of the assay: calcium entry via TRPC4 opening agents – cell-based, HEK293 TRPC4/mu-opioid, Fluo-4 calcium, dose response (AID 434937). In kind it is functional.

Assay [3] relates to HEK293. Nature of the assay: cells. In kind it is functional, cell-based. Conditions: Homo sapiens. This is another data set of the same source.
In assay [4] the target is T2, Streptokinase A (Streptococcus pyogenes serotype M1, UniProt P10520).
T2 sequence (P10520 whole entry): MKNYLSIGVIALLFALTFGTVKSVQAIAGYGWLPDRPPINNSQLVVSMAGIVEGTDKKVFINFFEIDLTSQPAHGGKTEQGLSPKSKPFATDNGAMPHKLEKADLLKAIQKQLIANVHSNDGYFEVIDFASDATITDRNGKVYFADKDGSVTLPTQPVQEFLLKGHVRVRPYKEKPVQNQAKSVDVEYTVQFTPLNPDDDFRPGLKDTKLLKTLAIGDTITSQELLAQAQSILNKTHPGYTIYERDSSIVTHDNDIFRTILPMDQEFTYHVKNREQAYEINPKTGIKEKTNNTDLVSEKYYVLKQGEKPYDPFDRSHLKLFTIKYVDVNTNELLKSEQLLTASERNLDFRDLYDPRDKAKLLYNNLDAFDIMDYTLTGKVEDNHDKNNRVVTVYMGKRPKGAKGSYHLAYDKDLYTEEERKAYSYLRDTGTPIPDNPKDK
The experiment in a line: viability-normalized secreted streptokinase activity reduction – plasminogen activation absorbance, OD405, dose response (AID 1914).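 Further: secreted streptokinase activity via plasminogen activation per viability signal from cell pellet.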 In kind it is functional, Streptococcus pyogenes M1 GAS.

The subject of assay [5] is HEK293. Nature of the assay: NOD2 signaling inhibitors in MDP-stimulated cells, cell-based, uHTS, luminescence (AID 2001). In kind it is functional. The settings on record: Homo sapiens.
Assay [6] has as its system Streptococcus. Nature of the assay: GAS UMAA2166 growth inhibition – luminescence, BacTiterGlo, counter-screen for streptokinase expression inhibitor project, dose response (AID 1915).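 Further: potency for reduction of bacterial viability or growth.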 In kind it is functional, organism-based. (The purpose of a counterscreen is to sort out artefacts and off-target activity.)
The target in assay [7] is Nucleotide-binding oligomerization domain-containing protein 2 (Homo sapiens, UniProt Q9HC29). The experiment in a line: inhibition of NOD2-driven NF-kB reporter – cell-based, luminescence, uHTS, HEK293 (AID 1566). In kind it is functional.
Nucleotide-binding oligomerization domain-containing protein 2, sequence (Q9HC29 whole entry, the tested form may be a part): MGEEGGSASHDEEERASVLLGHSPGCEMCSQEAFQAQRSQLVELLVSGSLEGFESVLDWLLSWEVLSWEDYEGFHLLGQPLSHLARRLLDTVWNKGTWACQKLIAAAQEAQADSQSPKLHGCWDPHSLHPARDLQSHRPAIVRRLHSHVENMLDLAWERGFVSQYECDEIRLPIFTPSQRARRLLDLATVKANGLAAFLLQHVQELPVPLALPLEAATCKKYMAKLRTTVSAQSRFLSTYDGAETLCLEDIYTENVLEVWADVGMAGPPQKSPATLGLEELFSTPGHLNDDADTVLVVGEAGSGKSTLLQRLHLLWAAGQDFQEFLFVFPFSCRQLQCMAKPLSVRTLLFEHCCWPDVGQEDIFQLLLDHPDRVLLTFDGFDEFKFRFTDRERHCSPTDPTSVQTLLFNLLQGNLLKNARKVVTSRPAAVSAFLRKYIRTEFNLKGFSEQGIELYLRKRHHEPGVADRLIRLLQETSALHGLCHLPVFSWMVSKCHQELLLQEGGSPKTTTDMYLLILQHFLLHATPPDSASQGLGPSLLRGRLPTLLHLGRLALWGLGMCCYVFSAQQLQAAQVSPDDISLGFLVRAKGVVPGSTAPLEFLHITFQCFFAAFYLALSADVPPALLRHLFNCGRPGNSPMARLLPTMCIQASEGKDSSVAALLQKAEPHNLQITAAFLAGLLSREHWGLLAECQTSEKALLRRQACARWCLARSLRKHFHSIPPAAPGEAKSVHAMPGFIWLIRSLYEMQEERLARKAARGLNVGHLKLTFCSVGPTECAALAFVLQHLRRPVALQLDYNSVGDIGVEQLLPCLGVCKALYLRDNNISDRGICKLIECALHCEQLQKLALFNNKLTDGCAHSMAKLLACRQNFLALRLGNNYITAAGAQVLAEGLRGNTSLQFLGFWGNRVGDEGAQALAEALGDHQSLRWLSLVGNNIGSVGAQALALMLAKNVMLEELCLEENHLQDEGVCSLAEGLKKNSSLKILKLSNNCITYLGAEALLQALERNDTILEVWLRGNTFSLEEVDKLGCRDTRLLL
Assay [8] in a line: viability of uninfected HEp-2 cells – cell-based, HTS, cytotoxicity control for RSV inhibitor project, dose response (AID 2410). In kind it is functional. The settings on record: human respiratory syncytial virus.
Assay [9] has as its system HEK293. Nature of the assay: cells. Format: functional, cell-based. The settings on record: Homo sapiens. The source holds these as a separate data set.
Assay [10] concerns HEK293. Nature of the assay: inhibition of NOD1-driven NF-kB reporter – cell-based, luminescence, uHTS, primary screen (AID 1578). The settings on record: Homo sapiens. Format: functional.
Assay [11] deals with Streptococcus sp. 'group A'. The experiment in a line: Streptococcus pyogenes SK(-)GAS viability under kanamycin – luminescence, BacTiterGlo, confirmation, counter-screen for streptokinase expression inhibitor project, dose response (AID 1900). In kind it is functional, organism-based. Conditions: read-out: EC50.
Assay [12] deals with X-box-binding protein 1 (Homo sapiens, UniProt P17861). Format: functional, Cricetulus griseus.
X-box-binding protein 1, sequence (P17861 whole entry): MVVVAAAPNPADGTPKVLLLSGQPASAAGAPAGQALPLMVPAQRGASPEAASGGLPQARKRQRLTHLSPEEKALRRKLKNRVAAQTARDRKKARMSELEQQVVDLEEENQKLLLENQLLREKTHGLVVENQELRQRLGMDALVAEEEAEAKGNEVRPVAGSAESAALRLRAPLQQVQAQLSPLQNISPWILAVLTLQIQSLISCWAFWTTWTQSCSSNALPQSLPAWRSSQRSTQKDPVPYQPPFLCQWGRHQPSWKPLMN
Assay [13] deals with DNA damage-inducible transcript 3 protein (Mus musculus, UniProt P35639). In kind it is functional, Cricetulus griseus.
DNA damage-inducible transcript 3 protein, sequence (P35639 whole entry): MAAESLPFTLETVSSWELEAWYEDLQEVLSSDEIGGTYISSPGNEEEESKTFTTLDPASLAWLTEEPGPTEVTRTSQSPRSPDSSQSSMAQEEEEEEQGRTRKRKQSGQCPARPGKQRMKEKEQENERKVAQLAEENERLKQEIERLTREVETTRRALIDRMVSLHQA
Assay [14] addresses Glyceraldehyde-3-phosphate dehydrogenase (Homo sapiens, UniProt P04406).
The target of assay [15] is T3, Alkaline phosphatase, tissue-nonspecific isozyme (Homo sapiens, UniProt P05186).
T3 sequence (P05186 whole entry): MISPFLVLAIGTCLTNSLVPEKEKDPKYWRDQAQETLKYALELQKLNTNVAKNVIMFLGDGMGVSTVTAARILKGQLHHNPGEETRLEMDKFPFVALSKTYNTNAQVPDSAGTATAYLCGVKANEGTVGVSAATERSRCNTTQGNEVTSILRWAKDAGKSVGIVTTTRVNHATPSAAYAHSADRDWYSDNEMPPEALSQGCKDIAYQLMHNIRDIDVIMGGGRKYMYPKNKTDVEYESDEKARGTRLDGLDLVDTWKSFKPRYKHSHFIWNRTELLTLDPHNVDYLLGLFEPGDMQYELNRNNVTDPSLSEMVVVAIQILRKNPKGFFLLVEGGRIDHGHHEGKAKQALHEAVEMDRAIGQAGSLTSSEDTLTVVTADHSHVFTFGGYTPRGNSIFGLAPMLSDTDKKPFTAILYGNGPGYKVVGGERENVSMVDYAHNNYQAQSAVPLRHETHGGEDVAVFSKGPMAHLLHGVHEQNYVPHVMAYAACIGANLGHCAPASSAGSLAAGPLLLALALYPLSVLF
Nature of the assay: potency against alkaline phosphatase TNAP – biochemical, luminescent, dose response, SAR follow-up (AID 1056).

The target in assay [16] is Alkaline phosphatase, placental type (Homo sapiens, UniProt P05187). Nature of the assay: human placental alkaline phosphatase inhibition – biochemical, luminescence, confirmation (AID 1512). In kind it is functional.
Alkaline phosphatase, placental type, sequence (P05187 whole entry): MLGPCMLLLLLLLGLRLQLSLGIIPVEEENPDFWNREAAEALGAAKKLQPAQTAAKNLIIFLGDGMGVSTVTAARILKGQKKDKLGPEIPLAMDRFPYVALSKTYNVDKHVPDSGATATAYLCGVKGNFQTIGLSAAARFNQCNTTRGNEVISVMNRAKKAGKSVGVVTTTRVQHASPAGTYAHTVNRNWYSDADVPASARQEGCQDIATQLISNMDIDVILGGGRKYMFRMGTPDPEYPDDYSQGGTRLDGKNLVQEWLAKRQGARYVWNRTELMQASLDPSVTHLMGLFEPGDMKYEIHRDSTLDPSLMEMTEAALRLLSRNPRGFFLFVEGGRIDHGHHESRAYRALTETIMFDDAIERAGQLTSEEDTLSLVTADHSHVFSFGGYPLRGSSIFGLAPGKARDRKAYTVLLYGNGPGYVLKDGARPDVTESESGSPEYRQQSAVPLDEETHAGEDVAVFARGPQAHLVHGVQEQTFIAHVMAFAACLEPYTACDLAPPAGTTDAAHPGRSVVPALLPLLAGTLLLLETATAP
Assay [17] in a line: cells. In kind it is functional.
In assay [18] the test system is T-cell. Nature of the assay: loss of vesicle association with mouse CD8+ T cells – mouse 2C CD8+ T cells, flow cytometry, dose response (AID 485284). In kind it is functional. For orientation: Flow cytometry measures light scatter and fluorescence of single cells or particles in a stream.
For assay [19], the target named is T4, Replicative DNA helicase DnaB (Mycobacterium tuberculosis, UniProt P9WMR3).
T4 sequence (P9WMR3 whole entry): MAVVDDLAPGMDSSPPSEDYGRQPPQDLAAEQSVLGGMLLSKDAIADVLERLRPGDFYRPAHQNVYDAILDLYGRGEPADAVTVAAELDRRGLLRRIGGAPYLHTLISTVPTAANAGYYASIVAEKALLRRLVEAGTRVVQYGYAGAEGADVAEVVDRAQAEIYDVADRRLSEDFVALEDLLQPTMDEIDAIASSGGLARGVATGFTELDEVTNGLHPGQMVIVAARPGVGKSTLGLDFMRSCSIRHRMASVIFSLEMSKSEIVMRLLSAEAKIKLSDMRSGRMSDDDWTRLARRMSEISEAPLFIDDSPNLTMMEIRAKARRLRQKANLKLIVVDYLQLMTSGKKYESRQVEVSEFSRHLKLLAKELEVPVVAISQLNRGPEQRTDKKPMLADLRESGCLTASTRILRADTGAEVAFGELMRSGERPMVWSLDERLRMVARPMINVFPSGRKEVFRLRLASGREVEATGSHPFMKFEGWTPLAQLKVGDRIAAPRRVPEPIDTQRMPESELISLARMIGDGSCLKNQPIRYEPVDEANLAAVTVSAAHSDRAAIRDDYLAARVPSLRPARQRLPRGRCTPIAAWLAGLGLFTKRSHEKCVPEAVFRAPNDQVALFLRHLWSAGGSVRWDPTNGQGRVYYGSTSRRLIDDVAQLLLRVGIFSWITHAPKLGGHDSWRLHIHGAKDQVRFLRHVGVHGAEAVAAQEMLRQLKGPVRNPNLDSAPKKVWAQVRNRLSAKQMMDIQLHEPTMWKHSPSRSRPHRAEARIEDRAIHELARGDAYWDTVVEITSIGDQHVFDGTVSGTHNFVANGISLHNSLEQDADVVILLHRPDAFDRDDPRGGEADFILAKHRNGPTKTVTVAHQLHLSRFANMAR
Nature of the assay: DnaB intein splicing inhibitors, dose response, biochemical, cell-free fluorescence (AID 449749). In kind it is functional.

Assay [20] concerns the target T5, Protein RecA (Mycobacterium tuberculosis, UniProt P9WHJ3).
T5 sequence (P9WHJ3 whole entry): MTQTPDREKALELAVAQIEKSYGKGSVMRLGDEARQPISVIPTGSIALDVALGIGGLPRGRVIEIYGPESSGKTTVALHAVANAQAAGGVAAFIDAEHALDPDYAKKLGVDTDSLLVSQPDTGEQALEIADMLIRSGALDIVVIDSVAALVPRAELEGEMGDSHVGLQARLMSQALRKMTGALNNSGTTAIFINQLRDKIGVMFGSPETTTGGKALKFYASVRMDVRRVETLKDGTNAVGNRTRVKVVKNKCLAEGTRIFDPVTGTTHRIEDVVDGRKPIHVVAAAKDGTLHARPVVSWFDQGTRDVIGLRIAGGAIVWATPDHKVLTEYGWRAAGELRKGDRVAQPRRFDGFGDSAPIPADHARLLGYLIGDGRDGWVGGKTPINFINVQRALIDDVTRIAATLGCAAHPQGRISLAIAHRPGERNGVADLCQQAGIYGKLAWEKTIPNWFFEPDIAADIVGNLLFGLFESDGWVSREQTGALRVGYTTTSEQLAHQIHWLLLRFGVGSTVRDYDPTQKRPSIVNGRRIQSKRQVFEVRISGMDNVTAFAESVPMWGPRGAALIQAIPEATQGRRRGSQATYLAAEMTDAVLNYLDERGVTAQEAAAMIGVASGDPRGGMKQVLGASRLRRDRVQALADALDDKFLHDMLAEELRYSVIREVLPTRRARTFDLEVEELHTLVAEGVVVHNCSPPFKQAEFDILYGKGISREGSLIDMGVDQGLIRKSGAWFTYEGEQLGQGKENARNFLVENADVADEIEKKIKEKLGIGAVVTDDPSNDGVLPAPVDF
The experiment in a line: Fluorescence Cell-Free Homogeneous Dose Retest to Identify Inhibitors of RecA-Intein Splicing Activity. [Related pubchem assays (depositor defined):AID2097, AID2223, AID489010, AID492950]. In kind it is functional.

Data on 4 compounds can be found in ChEMBL document CHEMBL1201862, “PubChem BioAssay data set” (2004).

Calls of active or inactive are those of the source. Where only a bound is given, the exact number is not on record here.
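Wherever Absolute IC50 (XBP1) is given: confirmatory dose-response counter-screen serving a CHOP assay.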

Glyceraldehyde-3-phosphate dehydrogenase, sequence (P04406 whole entry): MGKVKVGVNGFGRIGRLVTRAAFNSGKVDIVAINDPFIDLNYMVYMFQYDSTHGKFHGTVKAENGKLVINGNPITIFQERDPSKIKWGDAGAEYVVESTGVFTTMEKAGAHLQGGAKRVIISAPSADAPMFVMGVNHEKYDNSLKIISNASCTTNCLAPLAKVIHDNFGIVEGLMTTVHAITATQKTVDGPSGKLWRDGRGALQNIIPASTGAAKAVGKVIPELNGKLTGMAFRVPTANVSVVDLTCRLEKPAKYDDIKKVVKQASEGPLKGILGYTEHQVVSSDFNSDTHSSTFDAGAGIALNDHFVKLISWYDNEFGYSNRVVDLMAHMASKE

`Cc1csc2c(N3CCN(C(=O)Nc4ccc(Cl)c(Cl)c4)CC3)ncnc12`: the IC50 (usually the concentration that gives 50% inhibition) was 4.78 µM (active) in [1], 8.45 µM (active) in [3], 3.23 µM (active) in [5] and > 20 µM (inactive) in assay [9]. Also, the EC50 – broadly, the concentration giving half of the maximal effect – in assay [2] is 1.88 µM (active); in [4], 14.8 µM (active); in assay [6], 57.1 µM (active); in assay [7], 5 µM (active); in [10], 4.76 µM (active); in assay [11], 3.4 µM (active). Moreover, the CC50 (as a rule, the concentration that lowers cell viability or growth by half) in [8] was 43.7 µM (active).

With `CC1=C(C(=O)Nc2ccc(C)cc2C)C(c2cccc(Cl)c2)n2nc(C(=O)OC(C)C)nc2N1` (stereo not given), the “Absolute IC50 (XBP1)” value in assay [12] was 10 µM. Moreover, in assay [13], the “Absolute IC50 (CHOP)” value stood at 10 µM.

In the case of `CCCc1n[nH]c2c1C(=O)CC(C)(C)C2`, the results for the IC50 in [14], in assay [15] and in assay [16] were > 100 µM (not active), 14.4 µM (active) and > 100 µM (inactive), respectively.

In the case of `COc1ccc(NC(=O)Nc2ccc(O)c3ccccc23)cc1`, the IC50 in assay [17] was > 50 µM (active). Moreover, the EC50 was 12.5 µM (active) in assay [18] and 0.722 µM (active) in [20]. Also, the AC50 – broadly, the concentration giving half of the maximal activity seen – in assay [19] is 18 µM (active).
